Experimental data: the supplement of paper PMC10331698
± gives the standard deviation of the averaged measurements.

Assays:
Assay in all cases: level (log10 ratio to DMSO vehicle control); higher = higher biomarker level / cell amount than vehicle control
[1] = compound: FC(F)(F)COC(OCC(F)(F)F)OCC(F)(F)F [tris(Trifluoroethoxy)methane]; conditions: in DMSO
Description: (§1)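 BioMAP Diversity Plus panel of 12 human primary cell co-culture systems (3C, 4H, LPS, SAg, BT, BF4T, BE3C, CASM3C, HDF3CGF, KF3CT, MyoF, Mphg). Compounds were added 1 h before stimulation and left for 24 h (MyoF 48 h; BT 72 h for soluble read-outs or 6 d for IgG). Biomarkers were read by ELISA, cytotoxicity by SRB, PBMC viability and proliferation by Alamar Blue. Each well value was divided by the mean of 8 DMSO control wells on the same plate and log10 transformed; duplicate blinded samples were tested at 4 concentrations.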

[2] = compound: OCCCC(F)(F)C(F)(F)C(F)(F)C(F)(F)C(F)(F)C(F)(F)C(F)(F)C(F)(F)F [3-(Perfluorooctyl)propanol]; conditions: 6700 nM; in DMSO
Description: as §1

Tetrafluorosuccinic acid = compound: O=C(O)C(F)(F)C(F)(F)C(=O)O [Tetrafluorosuccinic acid]; conditions: in DMSO
Description: as §1

[3] = compound: OCC(F)(F)C(F)(F)C(F)(F)C(F)(F)C(F)(F)C(F)(F)C(F)(F)C(F)(F)C(F)(F)C(F)(F)C(F)(F)F [11:1 Fluorotelomer alcohol]; conditions: in DMSO
Description: as §1

[4] = compound: OCC(F)(F)C(F)(F)C(F)(F)C(F)(F)C(F)(F)C(F)(F)F [6:1 Fluorotelomer alcohol]; conditions: in DMSO
Description: as §1

[5] = compound: FC(F)(F)C(F)(F)C(F)(F)C(F)(F)CCI [1H,1H,2H,2H-Perfluorohexyl iodide]; conditions: in DMSO
Description: as §1

Methotrexate = compound: CN(Cc1cnc2nc(N)nc(N)c2n1)c1ccc(C(=O)N[C@@H](CCC(=O)O)C(=O)O)cc1 [Methotrexate]; conditions: in DMSO
Description: as §1

Row | Test System | level (log10) ([1]; 6700 nM) | level (log10) ([1]; 20000 nM) | level (log10) ([1]; 60000 nM) | level (log10) [2] | level (log10) (Tetrafluorosuccinic acid; 6700 nM) | level (log10) (Tetrafluorosuccinic acid; 20000 nM) | level (log10) (Tetrafluorosuccinic acid; 60000 nM) | level (log10) ([3]; 1100 nM) | level (log10) ([3]; 3300 nM) | level (log10) ([3]; 10000 nM) | level (log10) ([4]; 6700 nM) | level (log10) ([4]; 20000 nM) | level (log10) ([4]; 60000 nM) | level (log10) ([5]; 6700 nM) | level (log10) ([5]; 20000 nM) | level (log10) ([5]; 60000 nM) | level (log10) (Methotrexate; 1500 nM) | level (log10) (Methotrexate; 4400 nM) | level (log10) (Methotrexate; 13000 nM) | level (log10) (Methotrexate; 40000 nM)
1 | 4H:CCL2/MCP-1 | -0.017 ± 0.017 | -0.017 ± 0.018 | 0.031 ± 0.054 | 0.0195 ± 0.0078 | -0.037 ± 0.021 | -0.04 ± 0.028 | -0.0055 ± 0.086 | 0.0335 ± 0.033 | 0.0495 ± 0.00071 | 0.0835 ± 0.023 | -0.005 ± 0.0071 | -0.0135 ± 0.0035 | 0.002 ± 0.042 | 0.0175 ± 0.021 | -0.008 ± 0.016 | 0.0195 ± 0.042 | -0.02 ± 0.011 | -0.035 ± 0.02 | -0.0215 ± 0.023 | 0.0105 ± 0.0021
2 | LPS:sTNF-alpha | -0.009 ± 0.017 | 0.001 | 0.0105 ± 0.011 | -0.335 ± 0.2 | -0.0025 ± 0.018 | 0.0025 ± 0.011 | 0.009 ± 0.011 | 0.0075 ± 0.012 | -0.0485 ± 0.013 | -0.105 ± 0.08 | -0.0625 ± 0.071 | -0.046 ± 0.09 | -0.0115 ± 0.0092 | -0.003 ± 0.12 | 0.0385 ± 0.069 | 0.088 ± 0.071 | 0.0165 ± 0.033 | 0 ± 0.079 | -0.045 ± 0.024 | -0.0525 ± 0.069
3 | 4H:CD62P/P-selectin | -0.0215 ± 0.064 | 0.011 ± 0.088 | -0.0135 ± 0.053 | -0.0465 ± 0.022 | 0.001 ± 0.017 | -0.011 ± 0.0042 | -0.0005 ± 0.015 | -0.111 ± 0.042 | -0.095 ± 0.079 | -0.139 ± 0.13 | -0.023 ± 0.038 | -0.0435 ± 0.029 | -0.182 ± 0.079 | -0.001 ± 0.011 | 0.023 ± 0.011 | 0.0135 ± 0.012 | -0.019 ± 0.0028 | -0.0195 ± 0.032 | -0.0045 ± 0.086 | -0.0055 ± 0.073
4 | BF4T:MMP-9 | 0.015 ± 0.061 | 0.0075 ± 0.049 | 0.0205 ± 0.033 | 0.0155 ± 0.057 | -0.003 ± 0.021 | -0.0075 ± 0.022 | -0.014 ± 0.0085 | -0.025 ± 0.03 | -0.02 ± 0.0071 | -0.03 ± 0.0057 | -0.023 ± 0.016 | -0.004 ± 0.011 | 0.014 ± 0.0085 | 0.0085 ± 0.022 | 0.01 ± 0.047 | 0.02 ± 0.052 | 0.0265 ± 0.012 | -0.0075 ± 0.029 | 0.014 ± 0.0099 | 0.016
5 | 3C:CXCL9/MIG | -0.01 ± 0.018 | -0.008 ± 0.0057 | -0.0115 ± 0.0035 | -0.0075 ± 0.0092 | 0.0025 ± 0.015 | -0.0145 ± 0.012 | 0.0035 ± 0.028 | -0.001 ± 0.014 | 0.0045 ± 0.0064 | 0.0145 ± 0.016 | 0.0065 ± 0.0035 | 0.0065 ± 0.0035 | 0.019 | 0.0045 ± 0.00071 | -0.0085 ± 0.005 | 0.007 ± 0.0057 | 0.0075 ± 0.0092 | 0.001 ± 0.016 | -0.0015 ± 0.005 | 0.0145 ± 0.0064
6 | SAg:CD40 | 0.0005 ± 0.026 | -0.0185 ± 0.011 | -0.0245 ± 0.0064 | -0.029 ± 0.025 | 0 ± 0.023 | 0.001 ± 0.0014 | -0.018 ± 0.0071 | -0.038 ± 0.024 | -0.068 | -0.0685 ± 0.042 | -0.02 ± 0.023 | -0.0075 ± 0.0021 | -0.005 ± 0.033 | 0.019 ± 0.013 | 0.012 ± 0.0014 | -0.0185 ± 0.018 | -0.02 ± 0.0042 | -0.0525 ± 0.018 | -0.0055 ± 0.079 | -0.0305 ± 0.088
7 | BT:Secreted IgG | 0.019 ± 0.079 | -0.0135 ± 0.091 | 0.042 ± 0.014 | 0.009 ± 0.016 | -0.0035 ± 0.033 | 0.0055 ± 0.011 | 0.0155 ± 0.0035 | 0.007 ± 0.025 | 0.0025 ± 0.033 | -0.014 ± 0.054 | 0.004 ± 0.042 | -0.0005 ± 0.04 | -0.161 ± 0.14 | -0.012 ± 0.016 | -0.016 ± 0.0071 | -0.002 ± 0.014 | -1.302 ± 0.011 | -1.31 ± 0.079 | -1.33 | -1.26
8 | LPS:CD40 | -0.0235 ± 0.023 | -0.0275 ± 0.0092 | -0.013 ± 0.027 | -0.039 ± 0.018 | -0.016 ± 0.0028 | -0.0185 ± 0.0092 | -0.007 ± 0.014 | 0.0305 ± 0.028 | 0.0205 ± 0.0035 | -0.0275 ± 0.00071 | 0.053 ± 0.016 | 0.048 ± 0.052 | 0.041 ± 0.0028 | 0.0065 ± 0.0021 | -0.019 ± 0.02 | -0.0095 ± 0.025 | -0.033 ± 0.018 | -0.0475 ± 0.011 | -0.009 ± 0.028 | -0.0155 ± 0.03
9 | BF4T:Keratin 8/18 | 0.0035 ± 0.032 | 0.0035 ± 0.021 | 0.01 ± 0.024 | 0.021 ± 0.051 | 0.013 ± 0.018 | -0.0115 ± 0.037 | -0.0165 ± 0.03 | 0.0025 ± 0.026 | -0.009 ± 0.03 | -0.0075 ± 0.025 | -0.0085 ± 0.0092 | -0.0045 ± 0.023 | 0.03 ± 0.05 | 0.0015 ± 0.022 | -0.0045 ± 0.005 | 0.003 ± 0.033 | 0.005 ± 0.038 | -0.0385 ± 0.005 | -0.006 ± 0.054 | 0.0155 ± 0.028
10 | BF4T:tPA | 0.0025 ± 0.022 | -0.0105 ± 0.016 | -0.004 ± 0.0014 | 0.056 ± 0.016 | -0.0145 ± 0.0078 | -0.006 ± 0.034 | -0.025 ± 0.013 | 0.0015 ± 0.0092 | -0.003 ± 0.0071 | 0.026 ± 0.024 | -0.0055 ± 0.016 | -0.013 ± 0.021 | 0.0095 ± 0.029 | -0.0025 ± 0.0092 | 0.005 ± 0.0042 | 0.0475 ± 0.053 | 0.018 ± 0.0071 | -0.0155 ± 0.011 | 0.005 ± 0.014 | 0.0155 ± 0.018
11 | 3C:SRB | -0.02 | -0.0035 ± 0.00071 | -0.006 ± 0.02 | -0.0195 ± 0.018 | -0.0065 ± 0.011 | -0.0135 ± 0.0078 | -0.021 ± 0.017 | -0.043 ± 0.0014 | -0.115 ± 0.021 | -0.116 ± 0.014 | -0.0045 ± 0.0092 | -0.0025 ± 0.012 | -0.21 ± 0.3 | 0.0005 ± 0.018 | 0.004 ± 0.013 | -0.006 ± 0.0028 | 0.0055 ± 0.0035 | 0 ± 0.017 | 0.011 ± 0.028 | -0.0155 ± 0.0021
12 | 3C:Proliferation | -0.013 ± 0.061 | -0.001 ± 0.037 | 0.0035 ± 0.03 | -0.385 ± 0.027 | -0.0155 ± 0.028 | -0.01 ± 0.0014 | -0.0265 ± 0.021 | -0.189 ± 0.012 | -0.436 ± 0.042 | -0.338 ± 0.051 | -0.0285 ± 0.0092 | -0.0325 ± 0.0064 | -0.685 ± 0.77 | -0.0115 ± 0.0064 | -0.051 ± 0.064 | -0.047 ± 0.023 | 0.0185 ± 0.056 | 0.0495 ± 0.013 | 0.0285 ± 0.019 | -0.086 ± 0.04
13 | SAg:Proliferation | -0.012 ± 0.0014 | 0.013 ± 0.04 | 0.007 ± 0.013 | -0.005 ± 0.023 | 0.017 ± 0.04 | -0.0205 ± 0.032 | 0.049 ± 0.027 | -0.248 ± 0.083 | -0.364 ± 0.13 | -0.473 ± 0.35 | -0.0075 ± 0.005 | -0.0455 ± 0.0035 | -0.0325 ± 0.13 | -0.0205 ± 0.0078 | -0.043 ± 0.013 | -0.155 ± 0.014 | -0.085 ± 0.011 | -0.199 ± 0.044 | -0.253 ± 0.016 | -0.263 ± 0.023
14 | BE3C:IL-1alpha | 0.0075 ± 0.021 | -0.006 ± 0.021 | 0.021 ± 0.0057 | 0.0155 ± 0.03 | 0.019 ± 0.013 | 0.009 ± 0.02 | 0.0385 ± 0.012 | -0.011 ± 0.018 | -0.0325 ± 0.0021 | -0.029 ± 0.02 | -0.019 ± 0.0014 | 0.008 ± 0.0014 | -0.0155 ± 0.04 | 0.015 ± 0.017 | 0.024 ± 0.0042 | 0.045 ± 0.023 | -0.012 ± 0.0085 | -0.0255 ± 0.023 | -0.0095 ± 0.054 | 0.007 ± 0.033
15 | BF4T:SRB | -0.0065 ± 0.0064 | -0.0085 ± 0.00071 | -0.003 ± 0.014 | -0.0075 ± 0.0021 | -0.0035 ± 0.0021 | -0.005 ± 0.0028 | -0.0025 ± 0.00071 | -0.003 ± 0.0014 | -0.0075 ± 0.0064 | 0.001 ± 0.014 | -0.0045 ± 0.0064 | -0.0045 ± 0.013 | -0.004 ± 0.023 | -0.009 ± 0.0028 | -0.0055 ± 0.005 | -0.0035 ± 0.0078 | -0.003 ± 0.017 | -0.0105 ± 0.0078 | -0.007 ± 0.0071 | 0.0045 ± 0.023
